Source: patent US20050032754A1, “5,6-Trans-2-alkylvitamin D derivatives” (Hiroaki TAKAYAMA, priority 2000, published 2005)

Molecular target: T1, Bovine thymus 1α,25-dihydroxyvitamin D3 receptor (VDR) (Bos taurus, UniProt Q28037)
T1 sequence (Q28037 1-426): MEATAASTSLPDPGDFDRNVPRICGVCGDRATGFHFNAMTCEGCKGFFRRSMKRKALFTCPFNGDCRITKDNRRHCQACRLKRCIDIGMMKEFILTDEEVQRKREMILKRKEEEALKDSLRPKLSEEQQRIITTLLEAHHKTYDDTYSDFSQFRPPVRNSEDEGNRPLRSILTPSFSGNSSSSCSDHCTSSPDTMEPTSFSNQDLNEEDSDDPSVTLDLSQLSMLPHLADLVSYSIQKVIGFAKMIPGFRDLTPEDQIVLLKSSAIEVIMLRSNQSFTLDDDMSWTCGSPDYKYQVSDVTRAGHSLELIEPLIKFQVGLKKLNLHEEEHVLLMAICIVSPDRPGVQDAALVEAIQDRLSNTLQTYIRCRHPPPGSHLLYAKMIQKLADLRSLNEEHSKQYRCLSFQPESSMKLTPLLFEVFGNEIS
Conditions: relative value, 1α,25-dihydroxyvitamin D3 taken as 100; X=(y/x)×100 from concentrations inhibiting 50% of [3H]-1α,25-dihydroxyvitamin D3 binding (0.1 nM) to VDR

Row | VDR binding property | SMILES
1 | 8.6 | C=C1/C(=C/C=C2\CCCC3(C)C2CCC3[C@H](C)CCCC(C)(C)O)C[C@@H](O)[C@@H](C)[C@@H]1O (stereo partly drawn) [Example 1, (5E,7E)-(1S,2R,3R)-2-methyl-9,10-seco-5,7,10(19)-cholestatriene-1,3,25-triol]
2 | 0.4 | C=C1/C(=C/C=C2\CCCC3(C)C2CCC3[C@H](C)CCCC(C)(C)O)C[C@@H](O)[C@H](C)[C@@H]1O (stereo partly drawn) [Example 2, (5E,7E)-(1S,2S,3R)-2-methyl-9,10-seco-5,7,10(19)-cholestatriene-1,3,25-triol]
3 | 0.1 | C=C1/C(=C/C=C2\CCC[C@]3(C)[C@@H]([C@H](C)CCCC(C)(C)O)CC[C@@H]23)C[C@@H](O)[C@@H](C)[C@H]1O [Example 3, (5E,7E)-(1R,2R,3R)-2-methyl-9,10-seco-5,7,10(19)-cholestatriene-1,3,25-triol]
4 | < 0.01 | C=C1C(=CC=C2CCCC3(C)C2CCC3C(C)CCCC(C)(C)O)CC(O)C(C)C1O [Example 4, (5E,7E)-(1R,2S,3R)-2-methyl-9,10-seco-5,7,10(19)-cholestatriene-1,3,25-triol]
5 | 0.04 | C=C1/C(=C/C=C2\CCCC3(C)C2CCC3[C@H](C)CCCC(C)(C)O)C[C@H](O)[C@@H](C)[C@@H]1O (stereo partly drawn) [Example 5, (5E,7E)-(1S,2R,3S)-2-methyl-9,10-seco-5,7,10(19)-cholestatriene-1,3,25-triol]
6 | 0.013 | C=C1/C(=C/C=C2\CCCC3(C)C2CCC3[C@H](C)CCCC(C)(C)O)C[C@H](O)[C@H](C)[C@@H]1O (stereo partly drawn) [Example 6, (5E,7E)-(1S,2S,3S)-2-methyl-9,10-seco-5,7,10(19)-cholestatriene-1,3,25-triol]
7 | 0.03 | C=C1/C(=C/C=C2\CCCC3(C)C2CCC3[C@H](C)CCCC(C)(C)O)C[C@H](O)[C@@H](C)[C@H]1O (stereo partly drawn) [Example 7, (5E,7E)-(1R,2R,3S)-2-methyl-9,10-seco-5,7,10(19)-cholestatriene-1,3,25-triol]
8 | < 0.01 | C=C1/C(=C/C=C2\CCCC3(C)C2CCC3[C@H](C)CCCC(C)(C)O)C[C@H](O)[C@H](C)[C@H]1O (stereo partly drawn) [Example 8, (5E,7E)-(1R,2S,3S)-2-methyl-9,10-seco-5,7,10(19)-cholestatriene-1,3,25-triol]
9 | 45 | C=C1/C(=C/C=C2\CCCC3(C)C2CCC3[C@@H](C)CCCC(C)(C)O)C[C@@H](O)[C@@H](C)[C@@H]1O (stereo partly drawn) [Example 9, (5E,7E)-(1S,2R,3R,20S)-2-methyl-9,10-seco-5,7,10(19)-cholestatriene-1,3,25-triol]
10 | 1 | C=C1/C(=C/C=C2\CCCC3(C)C2CCC3[C@@H](C)CCCC(C)(C)O)C[C@@H](O)[C@H](C)[C@@H]1O (stereo partly drawn) [Example 10, (5E,7E)-(1S,2S,3R,20S)-2-methyl-9,10-seco-5,7,10(19)-cholestatriene-1,3,25-triol]
11 | 0.8 | C=C1C(=CC=C2CCCC3(C)C2CCC3C(C)CCCC(C)(C)O)CC(O)C(C)C1O [Example 11, (5E,7E)-(1R,2R,3R,20S)-2-methyl-9,10-seco-5,7,10(19)-cholestatriene-1,3,25-triol]
12 | 0.03 | C=C1/C(=C/C=C2\CCCC3(C)C2CCC3[C@@H](C)CCCC(C)(C)O)C[C@@H](O)[C@H](C)[C@H]1O (stereo partly drawn) [Example 12, (5E,7E)-(1R,2S,3R,20S)-2-methyl-9,10-seco-5,7,10(19)-cholestatriene-1,3,25-triol]
13 | 0.5 | C=C1/C(=C/C=C2\CCCC3(C)C2CCC3[C@@H](C)CCCC(C)(C)O)C[C@H](O)[C@@H](C)[C@@H]1O (stereo partly drawn) [Example 13, (5E,7E)-(1S,2R,3S,20S)-2-methyl-9,10-seco-5,7,10(19)-cholestatriene-1,3,25-triol]
14 | 0.2 | C=C1/C(=C/C=C2\CCCC3(C)C2CCC3[C@@H](C)CCCC(C)(C)O)C[C@H](O)[C@H](C)[C@@H]1O (stereo partly drawn) [Example 14, (5E,7E)-(1S,2S,3S,20S)-2-methyl-9,10-seco-5,7,10(19)-cholestatriene-1,3,25-triol]
15 | 0.2 | C=C1/C(=C/C=C2\CCCC3(C)C2CCC3[C@@H](C)CCCC(C)(C)O)C[C@H](O)[C@@H](C)[C@H]1O (stereo partly drawn) [Example 15, (5E,7E)-(1R,2R,3S,20S)-2-methyl-9,10-seco-5,7,10(19)-cholestatriene-1,3,25-triol]
16 | 0.08 | C=C1/C(=C/C=C2\CCCC3(C)C2CCC3[C@@H](C)CCCC(C)(C)O)C[C@H](O)[C@H](C)[C@H]1O (stereo partly drawn) [Example 16, (5E,7E)-(1R,2S,3S,20S)-2-methyl-9,10-seco-5,7,10(19)-cholestatriene-1,3,25-triol]
